Tests used:
[1] = Hepatocyte stability assay, human hepatocytes; assay type: in vitro ADME; settings: cryopreserved hepatocytes, read-out: Hepatocytes T½ (min) Human
Text: (§1) The […] of in vitro intrinsic clearance (Clint) for drug candidates in the early discovery stage is common practice in the pharmaceutical industry. The Clint values of drug candidates can help to confirm whether metabolism is the main clearance pathway when it is compared with the total body clearance in vivo. Hepatocytes are among the routinely used in vitro systems for measuring clearance. Hepatocytes have been reported to retain most of the phase I and phase II metabolic activities, and therefore, it is a useful tool to estimate the intrinsic clearance for potential drug candidates.
(§2) Metabolic stability of testing compound were be evaluated using human and mouse hepatocytes and can also be use rat, mouse, or other animal hepatocytes to predict intrinsic clearance. Cryopreserved hepatocytes were removed from the liquid nitrogen tank and thawed in a 37° C. water bath. As soon as the cells pulled away from the vial wall, they were decanted into 48 ml of warm HT medium. Cells were centrifuged for four minutes at 420 rpm (50 g). After removing the supernatant, pellet was re-suspended in warm DMEM medium. Cell density was counted by a hemacytometer.
(§3) The assay was carried out in 96-well microtiter plates. Compounds were incubated for 0, 60, 120, and 180 minutes at 37° C. with hepatocytes. Reaction mixtures (50 μL) contained a final concentration of 1 μM test compound, 0.5 million cells/mL hepatocytes in the DMEM medium. At each of the time points (for example, 0, 1, 2, and 3 hours), 200 μL of quench solution (100% acetonitrile with 0.1% formic acid) with internal standard was transferred to each well. Midazolam was included as a positive control to verify assay performance. Plates were sealed and centrifuged at 4° C. for 15 minutes at 4000 rpm. The supernatant is transferred to fresh plates for LC/MS/MS analysis.
(§4) Summarized conditions (customizable): [Compound]=[…], Positive control: midazolam and/or naloxone, [Hepatocyte]=0.5 million cells/Ml, time=0, 60, 120, and 180 min, t=37° C.
(§5) All samples were analyzed on LC/MS/MS using an AB Sciex API 4000 instrument, coupled to a Shimadzu LC-20AD LC Pump system. Analytical samples were separated using a Waters Atlantis T3 dC18 reverse phase HPLC column (20 mm×2.1 mm) at a flow rate of 0.5 mL/min. The mobile phase consisted of 0.1% formic acid in water (solvent A) and 0.1% formic acid in 100% acetonitrile (solvent B).
(§6) The extent of metabolism was calculated as the disappearance of the test compound, compared to the 0-min control reaction incubations. Initial rates were calculated for the compound concentration and used to determine t½ values and subsequently, the intrinsic clearance, Clint. Clint=(0.693)(1/t½(min))(mL incubation/million cells)

[2] = Hepatocyte stability assay, rat hepatocytes; assay type: in vitro ADME; settings: cryopreserved hepatocytes, read-out: Hepatocytes T½ (min) Rat
Text: as §1, §2, §3, §4, §5, §6

[3] = In vivo pharmacokinetics in plasma after oral gavage (PO) in male CD-1 mice; settings: for bioavailability / AUC(0-t) / Cmax / Tmax / half-life: mouse; for half-life: read-out: t½ (converted); for Cmin at 5 mg/kg PO: Table 4
Description: The purpose of this study is to determine the pharmacokinetics of the tested compounds in plasma, following oral gavage administration (PO) to male CD-1 mice.
Animal Husbandry: Animals were group housed during acclimation and the study. The animal room environment were controlled (target conditions: temperature 18 to 26° C., relative humidity 30 to 70%, 12 hours artificial light and 12 hours dark). Temperature and relative humidity were monitored daily. Animals were fasted at least 12 hours prior to the administration. All animals had access to Certified Rodent Diet ad libitum 4 hours post dosing.
Dose Formulation: prepared 85-100 uL of a stock solution of representative compounds of the disclosure in DMSO at 50 mM; 1.5% v/v of Tween 80 were added and mixed gently; 95.5% v/v saline was added gently to the organic phase. The solution was mixed slowly by reverse pipetting to get a clear solution.
Dose Administration: the dose formulations were administered via oral gavage per facility SOPs. The dose volume were determined by the animals' body weight collected on the morning of dosing day
Sample Collection: blood collection (about 0.05 mL per time point) was performed from saphenous vein of each animal into polypropylene tubes at each timepoints (0, 0.25, 0.5, 1, 2, 4, 8, 12, and 24 hr). All blood samples were transferred into pre-chilled tubes containing 2 μL of K2-EDTA (0.5M) and placed on wet ice until centrifugation. Each collected blood sample was in the wet-ice before centrifugation. Each collected blood was under centrifugation for 15 minutes at 4° C. and 3000 g for plasma collection. Plasma samples were stored in polypropylene tubes, quickly frozen over dry ice and kept at −70±10° C. until LC/MS/MS analysis.
Bioanalytical analysis: A LC-MS/MS method for the quantitative determination of tested compound in biological matrix were developed under non-GLP compliance. A calibration curve with at least 7 non-zero calibration standards were applied for the method including LLOQ.
Plasma concentration versus time data were analyzed by non-compartmental approaches using the Phoenix WinNonlin 6.3 software program. Cl, Vdss, C0, Cmax, Tmax, T^1/2, AUC(0-t), AUC(0-inf), MRT(0-t), MRT(0-inf), % F (oral availability) and graphs of plasma concentration versus time profile were reported.

[4] = plasma, single PO dose 5 mg/kg, male CD-1 mice, oral availability
[5] = single PO dose 5 mg/kg, male CD-1 mice, plasma

Compound | half-life at 1 μM [1] [min] | half-life at 1 μM [2] [min] | bioavailability [3, 4] [%] | AUC(0-t) [3, 5] [ng·h/mL] | Cmax [3, 5] [ng/mL] | Tmax [3, 5] [h] | half-life [3, 5] [h] | AUC/D [3, 5] [kg·ng·h/mL/mg] | Cmin at 5 mg/kg PO [3] [nM] | t½ [3, 5] [h] | F (%) ([3]; single PO dose 5 mg/kg, male CD-1 mice, oral availability)
CC(C)(c1ccc(OCc2coc(NS(C)(=O)=O)n2)cc1)c1cc(Cl)c(OCCCl)c(Cl)c1 [Compound A38, N-(4-((4-(2-(3,5-dichloro-4-(2-chloroethoxy)phenyl)propan-2-yl)phenoxy)methyl)oxazol-2-yl)methanesulfonamide] | > 360 | 56 | 86.4 | 12800 | 1270 | 3.3 | 4.9 | 2561.0 |  |  | 
CC(C)(c1ccc(OCc2nc(S(C)(=O)=O)cs2)cc1)c1cc(Cl)c(OCCCl)c(C#N)c1 [Compound A136, 3-Chloro-2-(2-chloroethoxy)-5-(2-(4-((4-(methylsulfonyl)thiazol-2-yl)methoxy)phenyl)propan-2-yl)benzonitrile] |  |  | 14 | 42000 | 3430 | 1.5 | 10.2 | 8407.6 |  |  | 
CC(C)(c1ccc(OCc2ncc(S(C)(=O)=O)s2)cc1)c1cc(Cl)c(OCCCl)c(C#N)c1 [Compound A93, 3-chloro-2-(2-chloroethoxy)-5-(2-(4-((5-(methylsulfonyl)thiazol-2-yl)methoxy)phenyl)propan-2-yl)benzonitrile] | > 360 | 94 | 62.8 | 32900 | 2970 | 0.8 | 17.1 | 6575.7 |  |  | 
CC(C)(c1ccc(OCc2ocnc2S(C)(=O)=O)cc1)c1cc(Cl)c(OCCCl)c(Cl)c1 [Compound A13, 5-((4-(2-(3,5-dichloro-4-(2-chloroethoxy)phenyl)propan-2-yl)phenoxy)methyl)-4-(methylsulfonyl)oxazole] | 290 | 75 | 85.8 | 8310 | 1140 | 1 | 8.3 | 1661.9 | 230 |  | 
CC(C)(c1ccc(OC[C@H](O)CNS(C)(=O)=O)cc1)c1cc(Cl)c(OC[C@H](O)CCl)c(Cl)c1 [X, reference compound] | > 360 |  |  |  |  |  |  |  |  |  | 
CCS(=O)(=O)Nc1nc(COc2ccc(C(C)(C)c3cc(Cl)c(OCCCl)c(C#N)c3)cc2)co1 [Compound A126] |  |  | 86 | 24500 | 3110 | 1.3 | 4.7 | 4909.4 |  |  | 
CC(C)(c1ccc(OCc2ocnc2S(C)(=O)=O)cc1)c1cc(Cl)c(OCCCl)c(C#N)c1 [Compound A28, 3-chloro-2-(2-chloroethoxy)-5-(2-(4-((4-(methylsulfonyl)oxazol-5-yl)methoxy)phenyl)propan-2-yl)benzonitrile] | > 360 | 31 | 50.3 | 8430 | 2010 | 0.5 | 2.8 | 1685.1 |  |  | 
CC(C)(c1ccc(OCc2ccnc(NS(C)(=O)=O)n2)cc1)c1cc(Cl)c(OCCCl)c(Cl)c1 [Compound A74, N-(4-((4-(2-(3,5-dichloro-4-(2-chloroethoxy)phenyl)propan-2-yl)phenoxy)methyl)pyrimidin-2-yl)methanesulfonamide] | > 360 | > 360 |  | 72700 | 6310 | 2.7 |  | 14542.3 | 2420 | 12.5 | 71.9

Now from value to compound:

half-life at 1 μM [1] [min] | half-life at 1 μM [2] [min] | bioavailability [3, 4] [%] | AUC(0-t) [3, 5] [ng·h/mL] | Cmax [3, 5] [ng/mL] | Tmax [3, 5] [h] | half-life [3, 5] [h] | AUC/D [3, 5] [kg·ng·h/mL/mg] | Cmin at 5 mg/kg PO [3] [nM] | t½ [3, 5] [h] | F (%) ([3]; single PO dose 5 mg/kg, male CD-1 mice, oral availability) | Compound
> 360 | > 360 | 33.6 | 30700 | 2670 | 2.2 | 8.1 | 6143.0 | 680 |  |  | CC(C)(c1ccc(OCc2ccnc(NS(C)(=O)=O)n2)cc1)c1cc(Cl)c(OCCCl)c(C#N)c1 [Compound A109, N-(4-((4-(2-(3-chloro-4-(2-chloroethoxy)-5-cyanophenyl)propan-2-yl)phenoxy)methyl)pyrimidin-2-yl)methanesulfonamide]
 |  | 92.4 | 6800 | 4080 | 0.5 | 1.1 | 1360.0 |  |  |  | Cc1cnc(NS(C)(=O)=O)nc1COc1ccc(C(C)(C)c2cc(Cl)c(OCCCl)c(C#N)c2)cc1 [Compound A122, N-(4-((4-(2-(3-Chloro-4-(2-chloroethoxy)-5-cyanophenyl)propan-2-yl)phenoxy)methyl)-5-methylpyrimidin-2-yl)methanesulfonamide]
 |  | 81 | 76000 | 7050 | 1.3 | 5 | 15209.4 |  |  |  | CCS(=O)(=O)Nc1nccc(COc2ccc(C(C)(C)c3cc(Cl)c(OCCCl)c(C#N)c3)cc2)n1 [Compound A131]
 |  | 150 | 80000 | 8500 | 3 | 3 | 16007.6 |  |  |  | C[C@H](Oc1ccc(C(C)(C)c2cc(Cl)c(OCCCl)c(C#N)c2)cc1)c1ccnc(NS(C)(=O)=O)n1 (single isomer, unassigned) [Compound A170]

Source: patent US11059795B2, “Androgen receptor modulators and methods for their use” (ESSA Pharma, Inc., priority 2018, dated 2021)
